Data: patent US8344118B2, “Preparation and isolation of 5′ capped MRNA” (Applied Biosystems, LLC, priority 2007, dated 2013)

How the values were obtained:
T7 RNA polymerase = T7 RNA polymerase (Escherichia phage T7, UniProt P00573); conditions: linearized pTri β actin vector template, 37° C. for 2 hr, 20% dPAGE gel, FIG. 9
Method: A Gel Shift assay was performed by using the MAXIscript™ kit (Ambion, Inc.) following the manufacturer's protocol. The assay determines if the modified cap analogs were substrates for T7 RNA polymerase. Typical 20 μL of T7 RNA polymerase transcriptions contained the following reagents at the final concentrations indicated: linearized pTri β actin vector template, 0.5 μg; ATP, 2 mmol; GTP, 0.4 mmol; 1.6 mmol each CTP and UTP, in a separate reaction; 10× reaction buffer, 4×; T7 RNA polymerase, 50 units/μL; (α-^32P) ATP, 800 (Ci/mmol); and DEPC water. The control reaction was a normal in vitro transcription reaction, in which no cap analog was added. The transcription reactions were incubated at 37° C. for 2 hr, after which the reaction mixtures were then applied to a 20% dPAGE gel. The assay detects specific structure or size changes described as gel shifts. When structure change or size change occurs it creates complexes that migrate slower during gel electrophoresis than the original complex.

[1] = test system: phage RNA polymerase such as T7, T3 or SP6; conditions: m^7GpppG to GTP (4:1); cited from earlier work

Sequence of T7 RNA polymerase (P00573 whole entry): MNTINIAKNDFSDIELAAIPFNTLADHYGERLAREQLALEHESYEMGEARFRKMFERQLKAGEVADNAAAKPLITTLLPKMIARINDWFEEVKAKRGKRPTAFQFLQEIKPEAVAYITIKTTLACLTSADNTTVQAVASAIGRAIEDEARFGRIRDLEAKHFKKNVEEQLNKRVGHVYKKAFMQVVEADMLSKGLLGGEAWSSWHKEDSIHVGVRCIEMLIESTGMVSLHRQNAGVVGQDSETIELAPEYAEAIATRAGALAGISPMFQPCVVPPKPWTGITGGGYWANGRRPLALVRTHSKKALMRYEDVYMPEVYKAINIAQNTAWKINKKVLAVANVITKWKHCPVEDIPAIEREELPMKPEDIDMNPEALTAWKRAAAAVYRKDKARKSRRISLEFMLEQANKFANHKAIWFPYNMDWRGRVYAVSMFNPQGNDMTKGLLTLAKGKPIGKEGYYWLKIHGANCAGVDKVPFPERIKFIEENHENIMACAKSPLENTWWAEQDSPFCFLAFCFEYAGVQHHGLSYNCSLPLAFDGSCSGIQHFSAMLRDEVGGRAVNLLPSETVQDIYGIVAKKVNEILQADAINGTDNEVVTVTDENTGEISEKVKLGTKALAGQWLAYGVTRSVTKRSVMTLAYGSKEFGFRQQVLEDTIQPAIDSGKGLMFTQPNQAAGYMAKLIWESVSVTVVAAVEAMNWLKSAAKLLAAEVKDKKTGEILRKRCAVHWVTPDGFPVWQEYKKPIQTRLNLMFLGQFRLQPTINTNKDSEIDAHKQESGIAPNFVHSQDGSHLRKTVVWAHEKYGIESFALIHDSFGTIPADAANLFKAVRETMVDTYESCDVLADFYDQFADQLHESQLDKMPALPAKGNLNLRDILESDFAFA

NCC=Cc1cn(C2OC(COP(=O)(O)OP(=O)(O)OP(=O)(O)OP(=O)(O)OCC3OC(n4cnc5c(=O)[nH]c(N)nc54)C(O)C3O)C(O)C2O)c(=O)[nH]c1=O (centres unmarked) [Compound 1, G[5′]pppp[5′]U-Aminoallyl]
capped RNA (T7 RNA polymerase): about 65%

Cn1c[n+]([C@@H]2O[C@H](COP(=O)(O)OP(=O)(O)OP(=O)(O)OC[C@H]3O[C@@H](n4cnc5c(=O)[nH]c(N)nc54)[C@H](O)[C@@H]3O)[C@@H](O)[C@H]2O)c2nc(N)[nH]c(=O)c21 [m^7GpppG, m^7G(5′)ppp(5′)G]
capped RNA [1]: 80%
